We go through 1 compound from patent US20090298938A1, “USE OF SEMI SYNTHETIC ANALOGUES OF BOSWELLIC ACIDS FOR ANTICANCER ACTIVITY” (COUNCIL OF SCIENTIFIC & INDUSTRIAL RESEARCH, priority 2008, published 2009).

The assay relates to caspase-3 in HL-60 cells. The experiment in a line: Caspase-3 activation, colorimetric, HL-60. The class given is cell-based, human. The protocol: FIGS. 8A-8B. Caspase activation in HL-60 cells by boswellic acid analogs. FIG. 8A depicts the results of a colorimetric evaluation of caspase-3 activation in HL-60 cells and Molt-4 cells. Cells were treated with a compound designated “c” (formula 1 compound wherein R3=COCH2CH2CH3, […] and R4+R5=O) at concentrations indicated for 6 hours. Caspase-3 inhibitor (DEVD-fmk) was added 30 min prior to the addition of caspase-3 substrate (DEVD-pNA) to the lysate. Data are mean of triplicate determinations with coefficients of variation less than 10%. […] Caspase-9 inhibitor LEHD-CHO was added 30 min prior to the addition of caspase-9 substrate to validate the specificity of caspase-9. Caspase-9 activity was measured fluorometrically. Data are a mean of triplicate determinations with a coefficient of variation of less than 10%. Caspases are important cysteine-proteases that are involved in the cleavage of DNA specifically producing 180 bp DNA fragments. The enzymes act through different signaling pathways. […] Caspase-9 activity was determined fluorometrically and caspase-3 colorimetrically using kits and the instruction provided by the manufacturer (BD pharmingen, USA). Caspase-3 activity was determined in both Molt-4 and HL-60 leukemia cells while caspase-9 was determined in HL-60 cells.

Regarding `CCCC(=O)OC1CCC2(C)C(CCC3(C)C2C(=O)C=C2C4C(C)C(C)CCC4(C)CCC23C)C1(C)C(=O)O` (centres unmarked) [R3=COCH2CH2CH3, R1=H, R4+R5=O], for the setting “50 μM”, the caspase-3 stimulation entry is on record as “about 50%”. The caspase-3 activation entry (HL-60 cells, 6 hr) is given as “about 50%”.
